# Tests used:
# [1] = tested on: Abutilon; assay: Pre-emergence test/greenhouse; assay type: in vivo; details: 250 g of ai/ha, after three weeks, vs untreated control
# Description: (§1) To produce a suitable preparation of active compound, 1 part by weight of active compound is mixed with the stated amount of solvent, the stated amount of emulsifier is added and the concentrate is diluted with water to the desired concentration.
# (§2) Seeds of the test plants are sown in normal soil. After about 24 hours, the soil is sprayed with the preparation of active compound such that the particular amount of active compound desired is applied per unit area. The concentration of the spray liquor is chosen so that the particular amount of active compound desired is applied in 1000 litres of water per hectare.
# (§3) After three weeks, the degree of damage to the plants is rated in % damage in comparison to the development of the untreated control.
# (§4) The figures denote: • 0%=no effect (like untreated control) • 100%=total destruction
# [2] = tested on: Alopecurus; assay: Pre-emergence test/greenhouse; assay type: in vivo; details: after three weeks, vs untreated control
# Description: as §1, §2, §3, §4
# [3] = tested on: Amaranthus; assay: Pre-emergence test/greenhouse; assay type: in vivo; details: after three weeks, vs untreated control
# Description: as §1, §2, §3, §4
# [4] = tested on: Sinapis; assay: Pre-emergence test/greenhouse; assay type: in vivo; details: 250 g of ai/ha, after three weeks, vs untreated control
# Description: as §1, §2, §3, §4
# [5] = tested on: weeds; assay: Pre-emergence test, activity against weeds; assay type: in vivo
# Description: as §1, §2, §3, §4
# [6] = tested on: Cyperus; assay: Pre-emergence test/greenhouse; assay type: in vivo; details: after three weeks, vs untreated control
# Description: as §1, §2, §3, §4
# [7] = tested on: Chenopodium; assay: Pre-emergence test/greenhouse; assay type: in vivo; details: 125 g of ai/ha, after three weeks, vs untreated control
# Description: as §1, §2, §3, §4
# [8] = tested on: Maize; assay: Pre-emergence test/greenhouse; assay type: in vivo; details: after three weeks, vs untreated control
# Description: as §1, §2, §3, §4
# [9] = tested on: Matricaria; assay: Pre-emergence test/greenhouse; assay type: in vivo; details: after three weeks, vs untreated control
# Description: as §1, §2, §3, §4
# [10] = tested on: Viola; assay: Pre-emergence test/greenhouse; assay type: in vivo; details: after three weeks, vs untreated control
# Description: as §1, §2, §3, §4
# [11] = tested on: Chenopodium; assay: Post-emergence test/greenhouse; assay type: in vivo; details: Table B4, post-emergence, 125 g of ai/ha, after three weeks, vs untreated control
# Description: (§5) To produce a suitable preparation of active compound, one part by weight of active compound is mixed with the stated amount of solvent, the stated amount of emulsifier is added and the concentrate is diluted with water to the desired concentration.
# (§6) Test plants which have a height of 5–15 cm are sprayed with the preparation of active compound such that the particular amounts of active compound desired are applied per unit area. The concentration of the spray liquor is chosen so that the particular amounts of active compound desired are applied in 1000 l of water/ha.
# as §3, §4
# [12] = tested on: Ipomoea; assay: Post-emergence test/greenhouse; assay type: in vivo; details: Table B4, post-emergence, 125 g of ai/ha, after three weeks, vs untreated control
# Description: as §5, §6, §3, §4
# [13] = tested on: Matricaria; assay: Post-emergence test/greenhouse; assay type: in vivo; details: 125 g of ai/ha, after three weeks, vs untreated control
# Description: as §5, §6, §3, §4
# [14] = tested on: Setaria; assay: Post-emergence test/greenhouse; assay type: in vivo; details: Table B4, post-emergence, 125 g of ai/ha, after three weeks, vs untreated control
# Description: as §5, §6, §3, §4
# [15] = tested on: Wheat; assay: Post-emergence test/greenhouse; assay type: in vivo; details: 125 g of ai/ha, after three weeks, vs untreated control
# Description: as §5, §6, §3, §4
# [16] = tested on: weeds; assay: Post-emergence test, activity against weeds; assay type: in vivo
# Description: as §5, §6, §3, §4
# [17] = tested on: Soya; assay: Pre-emergence test/greenhouse; assay type: in vivo; details: 4 g of ai/ha, after three weeks, vs untreated control
# Description: as §1, §2, §3, §4
# [18] = tested on: Stellaria; assay: Pre-emergence test/greenhouse; assay type: in vivo; details: after three weeks, vs untreated control
# Description: as §1, §2, §3, §4
# [19] = tested on: Veronica; assay: Pre-emergence test/greenhouse; assay type: in vivo; details: 4 g of ai/ha, after three weeks, vs untreated control
# Description: as §1, §2, §3, §4
# [20] = tested on: Abutilon; assay: Post-emergence test/greenhouse; assay type: in vivo; details: after three weeks, vs untreated control
# Description: as §5, §6, §3, §4
# [21] = tested on: Alopecurus; assay: Post-emergence test/greenhouse; assay type: in vivo; details: after three weeks, vs untreated control
# Description: as §5, §6, §3, §4
# [22] = tested on: Echinochloa; assay: Post-emergence test/greenhouse; assay type: in vivo; details: 15 g of ai/ha, after three weeks, vs untreated control
# Description: as §5, §6, §3, §4
# [23] = tested on: Lolium; assay: Post-emergence test/greenhouse; assay type: in vivo; details: 15 g of ai/ha, after three weeks, vs untreated control
# Description: as §5, §6, §3, §4
# [24] = tested on: Stellaria; assay: Post-emergence test/greenhouse; assay type: in vivo; details: after three weeks, vs untreated control
# Description: as §5, §6, §3, §4
# [25] = tested on: Veronica; assay: Post-emergence test/greenhouse; assay type: in vivo; details: 15 g of ai/ha, after three weeks, vs untreated control
# Description: as §5, §6, §3, §4
# [26] = tested on: Viola; assay: Post-emergence test/greenhouse; assay type: in vivo; details: after three weeks, vs untreated control
# Description: as §5, §6, §3, §4
# [27] = tested on: Cotton; assay: Pre-emergence test/greenhouse; assay type: in vivo; details: 15 g of ai/ha, after three weeks, vs untreated control
# Description: as §1, §2, §3, §4
# [28] = tested on: Amaranthus; assay: Post-emergence test/greenhouse; assay type: in vivo; details: after three weeks, vs untreated control
# Description: as §5, §6, §3, §4
# [29] = tested on: Barley; assay: Post-emergence test/greenhouse; assay type: in vivo; details: 4 g of ai/ha, after three weeks, vs untreated control
# Description: as §5, §6, §3, §4
# [30] = tested on: Xanthium; assay: Post-emergence test/greenhouse; assay type: in vivo; details: Table B3, post-emergence, 125 g of ai/ha, after three weeks, vs untreated control
# Description: as §5, §6, §3, §4
# [31] = Table A4, pre-emergence, 250 g of ai/ha
# [32] = Table A5, pre-emergence, 250 g of ai/ha
# [33] = Table A6, pre-emergence, 250 g of ai/ha
# [34] = Table B3, post-emergence, 125 g of ai/ha
smiles,measurement,setting,value
CCCc1scc(C(=O)OCC)c1NS(=O)(=O)NC(=O)Nc1nc(OC)cc(OC)n1 [Example 3],"degree of damage to the plants, Abutilon","[1]; Table A4, pre-emergence",80%
same,"degree of damage to the plants, Alopecurus",[2]; [31],70%
same,"degree of damage to the plants, Amaranthus",[3]; [31],90%
same,"degree of damage to the plants, Sinapis","[4]; Table A4, pre-emergence",90%
same,activity against weeds,[5],very strong activity
CCOC(=O)c1csc(C(C)C)c1NS(=O)(=O)NC(=O)Nc1nc(OC)cc(OC)n1 [Example 4],"degree of damage to the plants, Abutilon","[1]; Table A5, pre-emergence",95%
same,"degree of damage to the plants, Alopecurus",[2]; [32],100%
same,"degree of damage to the plants, Amaranthus",[3]; [32],90%
same,"degree of damage to the plants, Cyperus",[6]; [32],90%
same,"degree of damage to the plants, Sinapis","[4]; Table A5, pre-emergence",90%
same,activity against weeds,[5],very strong activity
CCc1scc(C(=O)OC)c1NS(=O)(=O)NC(=O)Nc1nc(OC)cc(OC)n1 [Example 5],"degree of damage to the plants, Chenopodium",[7],95%
same,"degree of damage to the plants, Cyperus","[6]; pre-emergence, 125 g of ai/ha",95%
same,"degree of damage to the plants, Maize","[8]; pre-emergence, 125 g of ai/ha",20%
same,"degree of damage to the plants, Matricaria",[9]; 125 g of ai/ha,100%
same,"degree of damage to the plants, Viola",[10]; 125 g of ai/ha,95%
same,activity against weeds,[5],very strong activity
same,"degree of damage to the plants, Chenopodium",[11],100%
same,"degree of damage to the plants, Ipomoea",[12],100%
same,"degree of damage to the plants, Matricaria","[13]; Table B4, post-emergence",100%
same,"degree of damage to the plants, Setaria",[14],90%
same,"degree of damage to the plants, Wheat","[15]; Table B4, post-emergence",20%
same,activity against weeds,[16],very strong activity
"COC(=O)c1csc(C)c1S(=O)(=O)NC(=O)Nc1nc(C)nc(OC)n1 [Example 1, N-(4-methoxy-6-methyl-1,3,5-triazin-2-yl)-N′-(4-methoxycarbonyl-2-methyl-thien-3-yl-sulphonyl)-urea]","degree of damage to the plants, Matricaria",[9]; 4 g of ai/ha,95%
same,"degree of damage to the plants, Soya",[17],10%
same,"degree of damage to the plants, Stellaria",[18]; 4 g of ai/ha,95%
same,"degree of damage to the plants, Veronica",[19],95%
same,"degree of damage to the plants, Viola",[10]; 4 g of ai/ha,100%
same,activity against weeds,[5],very strong activity
same,"degree of damage to the plants, Abutilon",[20]; 15 g of ai/ha,100%
same,"degree of damage to the plants, Alopecurus",[21]; 15 g of ai/ha,100%
same,"degree of damage to the plants, Echinochloa",[22],100%
same,"degree of damage to the plants, Lolium",[23],100%
same,"degree of damage to the plants, Stellaria",[24]; 15 g of ai/ha,100%
same,"degree of damage to the plants, Veronica",[25],100%
same,"degree of damage to the plants, Viola","[26]; post-emergence, 15 g of ai/ha",100%
same,activity against weeds,[16],very strong activity
same,melting point,,195 °C
COC(=O)c1csc(C)c1S(=O)(=O)NC(=O)Nc1nc(OC)cc(OC)n1 [Example 6],"degree of damage to the plants, Alopecurus","[2]; pre-emergence, 15 g of ai/ha",80%
same,"degree of damage to the plants, Amaranthus","[3]; pre-emergence, 15 g of ai/ha",90%
same,"degree of damage to the plants, Cotton",[27],0%
same,"degree of damage to the plants, Stellaria",[18]; 15 g of ai/ha,90%
same,"degree of damage to the plants, Viola",[10]; 15 g of ai/ha,100%
same,activity against weeds,[5],very strong activity
same,"degree of damage to the plants, Abutilon",[20]; 4 g of ai/ha,100%
same,"degree of damage to the plants, Alopecurus",[21]; 4 g of ai/ha,90%
same,"degree of damage to the plants, Amaranthus","[28]; post-emergence, 4 g of ai/ha",100%
same,"degree of damage to the plants, Barley",[29],20%
same,"degree of damage to the plants, Stellaria",[24]; 4 g of ai/ha,95%
same,activity against weeds,[16],very strong activity
"COC(=O)c1csc(C)c1NS(=O)(=O)NC(=O)Nc1nc(OC)cc(OC)n1 [Example 2, N-(4,6-dimethoxy-pyrimidin-2-yl)-N′-(4-methoxycarbonyl-2-methyl-thien-3-yl-amino-sulphonyl)-urea]","degree of damage to the plants, Abutilon","[1]; Table A6, pre-emergence",90%
same,"degree of damage to the plants, Amaranthus",[3]; [33],95%
same,"degree of damage to the plants, Cyperus",[6]; [33],95%
same,"degree of damage to the plants, Maize",[8]; [33],20%
same,"degree of damage to the plants, Sinapis","[4]; Table A6, pre-emergence",95%
same,activity against weeds,[5],very strong activity
same,"degree of damage to the plants, Amaranthus",[28]; [34],100%
same,"degree of damage to the plants, Matricaria","[13]; Table B3, post-emergence",100%
same,"degree of damage to the plants, Viola",[26]; [34],100%
same,"degree of damage to the plants, Wheat","[15]; Table B3, post-emergence",0%
same,"degree of damage to the plants, Xanthium",[30],95%
same,activity against weeds,[16],very strong activity
same,melting point,,174 °C

# Source: patent US7091158B2, “Substituted thienyl(amino)sulphonylureas” (Bayer Aktiengesellschaft, priority 1999, dated 2006)
